Test results reported in US7332290B2, “Dectection of AMACR cancer markers in urine” (The Regents of the University of Michigan, priority 2001, dated 2008).
Peptide text beside a SMILES is read from it. * marks the point of attachment. Cbz = O=C(OCc1ccccc1)*; CH2F = FC*

Tests used:
Assay type in all cases: cell-based
HDAC activity = assay: DNA microarray of EZH2-transfected cells, EZH2-mediated gene silencing
From the text: Other molecules have been similarly tested with this approach. Cells were transfected with different EZH2 constructs and transfection efficiency was monitored by beta-galactosidase assay and was approximately 30-50%. EZH2.SET mutant expressing samples were compared to EZH2 expressing samples using the SAM analysis package (Tusher et al., PNAS 98:5116 [2001]). Data was pre-processed by multiplication by a normalization factor to adjust the aggregate ratio of medians to one, log base 2 transformed and median centered each array, individually. This pre-processed data was divided into 2 groups for comparison using a two-class, unpaired t-test. […] These 161 genes were supplemented by the values for EZH2 and then analyzed using Cluster implementing average linkage hierarchical clustering of genes. […]
PcG proteins have been proposed to mediate their functions by repression of target genes (Laible et al., supra; Jacobs et al., Semin Cell Dev. Biol. 10:227 [1999]). To begin to test this hypothesis, RWPE prostate cells were transiently transfected with wild-type EZH2 and global gene expression alterations were monitored using DNA microarrays. […]

LNCaP cells = assay: Androgen/anti-androgen treatment of LNCaP cells, Western blot of AMACR and PSA; settings: LNCaP cells exposed to synthetic androgen, 1 nM, 24 and 48 h
Procedure: Prostate cell lines (RWPE-1, LNCaP, PC3 and DU145) were obtained from the American Tissue Culture Collection. Cells were maintained in RPMI-1640 with 8% decomplemented fetal bovine serum, 0.1% glutamine and 0.1% penicillin and streptomycin (BioWhittaker, Walkersville, Md.). Cells were grown to 75% confluence and then treated for 24 and 48 with the antiandrogen bicalutamide (CASODEX, Zeneca Pharmaceuticals, Plankstadt, Germany) at a final concentration of 20 μM or with methyltrienolone (synthetic androgen (R1881); NEN, Life Science Products, Boston, Mass.) at a final concentration of 1 nM. Cells were harvested and lysed in NP-40 lysis buffer containing 50 mmol/L Tris-HCl, pH 7.4, 1% Nonidet P-40 (Sigma, St. Louis, Mo.) and complete proteinase inhibitor cocktail (Roche, Ind., USA). 15 μg of protein extracts were mixed with SDS sample buffer and electrophoresed onto a 10% SDS-polyacrylamide gel under reducing conditions. After transferring, the membranes (Amersham Pharmacia Biotech, Piscataway, N.J.) were incubated for 1 hour in blocking buffer (Tris-buffered saline with 0.1% Tween and 5% nonfat dry milk). The AMACR antibody was applied at 1:10.000 diluted blocking buffer overnight at 4° C. […]

prostate cells = assay: WST-1 cell proliferation assay after siRNA transfection; settings: WST-1, caspase inhibitor added to EZH2 siRNA treated cells
Procedure: 21-nucleotide sense and antisense RNA oligonucleotides were chemically synthesized (Dharmacon Research Inc.) and annealed to form duplexes. The siRNA employed in the study were targeted to the region corresponding from 85 to 106 of the reported human EZH2 (NM004456). Control siRNA duplexes targeted luciferase, lamin and AMACR (NM014324). The human transformed prostate cell line RWPE (Webber et al., Carcinogenesis 18:1225 [1997]) and PC3 were plated at 2×10^5 cells per well in a 12 well plate (for immunoblot analysis, cell counts, and fluorescence activated cell sorting (FACS) analysis) and 1.5×10^4 cell per well in a 96 well plate (for WST-1 proliferation assays). Twelve hours after plating, the cells were transfected with 60 picomoles of siRNA duplex, sense or antisense oligonucleotides (targeting EZH2) using oligofectamine (Invitrogen). […] Cell viability was assessed 60 hours after the initial transfection.
Cell proliferation was determined with the colorimetric assay of cell viability, based on the cleavage of tetrazolium salt WST-1 by mitochondrial dehydrogenases as per manufacturers instructions (Roche, Inc.). The absorbance of the formazan dye formed, which directly correlates with the number of metabolically active cells in the culture, was measured at 450 nm (Bio-Tek instruments), an hour after the addition of the reagent. […]

CC(/C=C/C(=O)NO)=C\[C@@H](C)C(=O)c1ccc(N(C)C)cc1 [trichostatin A]
effect on EZH2-mediated gene silencing (HDAC activity): completely abrogated the effects of EZH2

C[C@]1(O)CC[C@H]2[C@@H]3CCC4=CC(=O)CCC4=C3C=C[C@@]21C [R1881, methyltrienolone]
AMACR expression (LNCaP cells): no increase in AMACR expression

COC(=O)C[C@H](NC(=O)[C@H](C)NC(=O)[C@@H](NC(=O)OCc1ccccc1)C(C)C)C(=O)CF [z-VAD-fmk] (Cbz-Val-Ala-Asp(OMe)-CH2F)
attenuation of EZH2 siRNA induced inhibition of cell proliferation (prostate cells): failed to attenuate
